In patent US6833456B2, “Indolyl-urea derivatives of thienopyridines useful as antiangiogenic agents, and methods for their use” (Agouron Pharmaceuticals, Inc., priority 2002, dated 2004):

Legend:
[1] = target: T1, unphosphorylated VEGF-R2Δ50 (FLVK) (Homo sapiens, UniProt P35968, DEL940-989/E990V); assay: VEGF-R2 coupled spectrophotometric assay, unphosphorylated construct (FLVK); type: biochemical; conditions: for inhibition at 0.05 µM: percent inhibition at 50 nM
T1 construct: VEGF-R2Δ50 contains residues 806-939 and 990-1171; made in house; host or cells: baculovirus/insect cell system
T1 sequence (P35968 with tags, fused parts or gaps DEL940-989/E990V limits assumed): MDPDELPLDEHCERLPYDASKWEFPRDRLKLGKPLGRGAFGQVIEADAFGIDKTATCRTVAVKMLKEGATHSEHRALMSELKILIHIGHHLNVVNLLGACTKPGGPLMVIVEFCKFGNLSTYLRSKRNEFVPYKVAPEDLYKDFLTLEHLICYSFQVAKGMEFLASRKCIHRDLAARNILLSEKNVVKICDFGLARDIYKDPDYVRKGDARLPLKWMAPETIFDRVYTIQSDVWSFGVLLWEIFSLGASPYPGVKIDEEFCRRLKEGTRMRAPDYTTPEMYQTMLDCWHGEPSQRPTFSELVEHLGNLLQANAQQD
Text: This construct determines the ability of a test compound to inhibit tyrosine kinase activity. A construct (VEGF-R2Δ50) of the cytosolic domain of human vascular endothelial growth factor receptor 2 (VEGF-R2) lacking the 50 central residues of the 68 residues of the kinase insert domain was expressed in a baculovirus/insect cell system. Of the 1356 residues of full-length VEGF-R2, VEGF-R2Δ50 contains residues 806-939 and 990-1171, and also one point mutation (E990V) within the kinase insert domain relative to wild-type VEGF-R2. Autophosphorylation of the purified construct was performed by incubation of the enzyme at a concentration of 4 μM in the presence of 3 mM ATP and 40 mM MgCl2 in 100 mM HEPES, pH 7.5, containing 5% glycerol and 5 mM DTT, at 4° C. for 2 h. […] See Parast et al., Biochemistry, 37, 16788-16801 (1998).
The production of ADP from ATP that accompanies phosphoryl transfer was coupled to oxidation of NADH using phosphoenolpyruvate (PEP) and a system having pyruvate kinase (PK) and lactic dehydrogenase (LDH). The oxidation of NADH was monitored by following the decrease of absorbance at 340 nm ([…]=6.22 cm^−1 mM^−1) using a Beckman DU 650 spectrophotometer. Assay conditions for phosphorylated VEGF-R2Δ50 (indicated as FLVK-P in the tables below) were the following: 1 mM PEP; 250 μM NADH; 50 units of LDH/mL; 20 units of PK/mL; 5 mM DTT; […]; 1 mM ATP; and 25 mM MgCl2 in 200 mM HEPES, pH 7.5. Assay conditions for unphosphorylated VEGF-R2Δ50 (indicated as FLVK in the tables) were the following: 1 mM PEP; 250 μM NADH; 50 units of LDH/mL; 20 units of PK/mL; 5 mM DTT; […]; 3 mM ATP; and 60 mM MgCl2 and 2 mM MnCl2 in 200 mM HEPES, pH 7.5. Assays were initiated with 5 to 40 nM of enzyme. Ki values were determined by measuring enzyme activity in the presence of varying concentrations of test compounds. The percent inhibition at 50 nm (% inhibition@ 50 nm) was determined by linear least-squares regression analysis of absorbance as a function of time. The binding inhibitions were fitted to equation as described by Morrison. The data were analyzed using Enzyme Kinetic and Kaleidagraph software.

Mouse PK assay = type: in vivo, B6 female mice; conditions: po
Procedure: The pharmacokinetics (e.g., absorption and elimination) of drugs in mice were analyzed using the following experiment. Test compounds were formulated as a suspension in a 30:70 (PEG 400: acidified H2O) vehicle. This solution was administered orally (p.o.) and intraperitoneally (i.p.) at 50 mg/kg to two distinct groups (n=4) of B6 female mice. Blood samples were collected via an orbital bleed at time points: 0 hour (pre-dose), 0.5 hr, 1.0 hr, 2.0 hr, and 4.0 hr post dose. Plasma was obtained from each sample by centrifugation at 2500 rpm for 5 min. Test compound was extracted from the plasma by an organic protein precipitation method. For each time bleed, 50 μL of plasma was combined with 1.0 mL of acetonitrile, vortexed for 2 min. and then spun at 4000 rpm for 15 min. to precipitate the protein and extract out the test compound. Next, the acetonitrile supernatant (the extract containing test compound) was poured into new test tubes and evaporated on a hot plate (25° C.) under a steam of N2 gas. To each tube containing the dried test compound extract, 125 μL of mobile phase (60:40, 0.025 M NH4H2PO4+2.5 mL/L TEA:acetonitrile) was added. The test compound was resuspended in the mobile phase by vortexing and more protein was removed by centrifugation at 4000 rpm for 5 min. Each sample was poured into an HPLC vial for test compound analysis on an Hewlett Packard 1100 series HPLC with UV detection. From each sample, 95 μL was injected onto a Phenomenex-Prodigy reverse phase C-18, 150×3.2 mm column and eluted with a 45-50% acetonitrile gradient run over 10 min. Test-compound plasma concentrations (μg/mL) were determined by a comparison to standard curve (peak area vs. conc. μg/mL) using known concentrations of test compound extracted from plasma samples in the manner described above. Along with the standards and unknowns, three groups (n=4) of quality controls (0.25 μg/mL, 1.5 μg/mL, and 7.5 μg/mL) were run to insure the consistency of the analysis. […] The quantitated test samples were plotted for visual display using Kaleidagraph software and their pharmacokinetic parameters were determined using WIN NONLIN software.

PDGFRβ = target: T2, PDGFRβ (Homo sapiens, UniProt P09619); assay: PAE-PDGFRβ phosphorylation in PAE-PDGFRB cells assay; type: cell-based; conditions: PAE cells overexpressing human PDGFRβ, PDGF-BB stimulated; read-out: PAE PDGFR autophos IC50
T2 construct: expressed in transfected cells; host or cells: porcine aorta endothelial (PAE) cells
T2 sequence (P09619 33-1106): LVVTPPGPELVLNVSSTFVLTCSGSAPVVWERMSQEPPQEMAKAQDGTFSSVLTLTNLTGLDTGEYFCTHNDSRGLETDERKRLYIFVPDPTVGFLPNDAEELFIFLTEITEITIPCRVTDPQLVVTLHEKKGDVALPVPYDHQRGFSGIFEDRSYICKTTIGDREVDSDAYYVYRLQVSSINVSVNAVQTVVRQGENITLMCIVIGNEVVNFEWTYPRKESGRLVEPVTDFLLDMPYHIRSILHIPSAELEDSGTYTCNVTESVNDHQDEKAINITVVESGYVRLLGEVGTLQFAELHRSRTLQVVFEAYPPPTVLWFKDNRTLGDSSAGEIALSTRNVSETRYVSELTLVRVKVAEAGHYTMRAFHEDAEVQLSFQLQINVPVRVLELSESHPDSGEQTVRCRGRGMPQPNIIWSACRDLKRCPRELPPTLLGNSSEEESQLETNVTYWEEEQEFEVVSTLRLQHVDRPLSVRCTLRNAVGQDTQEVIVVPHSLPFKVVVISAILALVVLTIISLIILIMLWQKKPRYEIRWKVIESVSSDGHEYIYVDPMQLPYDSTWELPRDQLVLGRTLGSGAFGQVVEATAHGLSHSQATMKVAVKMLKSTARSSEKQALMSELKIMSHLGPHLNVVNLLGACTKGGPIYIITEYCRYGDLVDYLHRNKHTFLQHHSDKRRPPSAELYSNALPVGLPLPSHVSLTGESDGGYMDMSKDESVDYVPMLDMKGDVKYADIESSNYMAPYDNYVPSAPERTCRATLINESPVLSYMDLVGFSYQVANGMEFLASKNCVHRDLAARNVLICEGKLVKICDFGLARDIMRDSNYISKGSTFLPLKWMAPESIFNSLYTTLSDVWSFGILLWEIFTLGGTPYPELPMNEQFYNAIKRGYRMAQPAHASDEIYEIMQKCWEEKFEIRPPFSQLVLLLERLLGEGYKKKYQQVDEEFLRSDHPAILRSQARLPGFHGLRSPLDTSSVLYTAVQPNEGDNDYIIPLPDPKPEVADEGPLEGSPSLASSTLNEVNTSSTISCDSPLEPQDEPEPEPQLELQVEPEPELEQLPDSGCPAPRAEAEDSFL
Procedure: This assay determines the ability of a test compound to inhibit the autophosphorylation of PDGFRβ in porcine aorta endothelial (PAE)-PDGFRβ cells. PAE cells that overexpress human PDGFRβ were used in this assay. The cells were cultured in Ham's F12 media supplemented with 10% fetal bovine serum (FBS) and 400 ug/ml G418. Twenty thousands cells were seeded in each well of a 96-well plate in 50 μL of growth media and allowed to attach for 6 hours at 37° C. Cells were then exposed to the starvation media (Ham's F12 media supplemented with 0.1% FBS) for 16 hours. After the starvation period was over, 10 μL of test agent in 5% DMSO in starvation media were added to the test wells and 10 μL of the vehicle (5% DMSO in starvation media) were added into the control wells. The final DMSO concentration in each well was 0.5%. Plates were incubated at 37° C. for 1 hour and the cells were then stimulated with 1 μg/mL PDGF-BB (R & D System) in the presence of 2 mM Na3VO4 for 8 minutes. The cells were washed once with 1 mm Na3VO4 in HBSS and lysed by adding 50 μL per well of lysis buffer. One hundred μL of dilution buffer were then added to each well and the diluted cell lysate was transferred to a 96-well goat ant-rabbit coated plate (Pierce), which was pre-coated with Rabbit anti Human PDGFRβ antibody (Santa Cruz). The plates were incubated at room temperature for 2 hours and washed seven times with 1% Tween 20 in PBS. HRP-PY20 (Santa Cruz) was diluted and added to the plate for a 30-minute incubation. Plates were then washed again and TMB peroxidase substrate (Kirkegaard & Perry) was added for a 10-minute incubation. One hundred μL of 0.09 N H2SO4 was added into each well of the 96-well plate to stop the reaction. Phosphorylation status was assessed by spectrophotometer reading at 450 nm. IC50 values were calculated by curve fitting using a four-parameter analysis.

| Ki [1] [nM] | inhibition at 0.05 µM [1] [%] | Mouse Cmin, po (Mouse PK assay) [ng/mL] | IC50 (PDGFRβ) [nM] | AUC (Mouse PK assay; female, B6, mouse, plasma, 50 mg/kg) [ng·h/mL] | Cmax (Mouse PK assay; female, B6, mouse, plasma, 50 mg/kg, p.o., 50 mg/kg, read-out: Mouse Cmax, po ng-h/mL) [ng/mL] | SMILES |
| --- | --- | --- | --- | --- | --- | --- |
| 0.148 | 99 | 16470 | – | – | – | C#CCNC(=O)n1c(C)cc2c(F)c(Oc3ccnc4cc(C(=O)N5CCC(O)C5)sc34)ccc21 (stereo in doubt) [Example 5k, 4-Fluoro-5-[2-(3R-hydroxy-pyrrolidine-1-carbonyl)-thieno[3,2-b]pyridin-7-yloxy]-2-methyl-indole-1-carboxylic acid prop-2-ynylamide] |
| 1.23 | 94 | – | 57.7 | – | – | C#CCNC(=O)n1c(C)cc2cc(Nc3ccnc4cc(C(=O)N5CC[C@H](OC)C5)sc34)ccc21 [Example 1h, 5-[2-(3S-Methoxy-pyrrolidine-1-carbonyl)-thieno[3,2-b]pyridin-7-ylamino]-2-methyl-indole-1-carboxylic acid prop-2-ynylamide] |
| 0.2 | 83 | – | 2.48 | – | – | CNC(=O)n1c(C)cc2cc(Oc3ccnc4cc(-c5nc(CO)cs5)sc34)ccc21 [Example 3m] |
| 24 | 10 | 11 | – | 383 | 265 | COC[C@H]1CCCN1C(=O)c1cc2nccc(Oc3ccc4[nH]c(C)c(C(=O)NC5CC5)c4c3)c2s1 [Example 4y, 5-[2-(2R-Methoxymethyl-pyrrolidine-1-carbonyl)-thieno[3,2-b]pyridin-7-yloxy]-2-methyl-1H-indole-3-carboxylic acid cyclopropylamide] |
| 0.09 | 99 | – | 3.65 | – | – | C#CCNC(=O)n1c(C)cc2c(F)c(Oc3ccnc4cc(C(=O)N5CC[C@@H](OC)C5)sc34)ccc21 [Example 5o, 4-Fluoro-5-[2-((R)-3-methoxy-pyrrolidine-1-carbonyl)-thieno[3,2-b]pyridin-7-yloxy]-2-methyl-indole-1-carboxylic acid prop-2-ynylamide] |
| 0.406 | 95 | – | > 1000 | – | – | CNC(=O)n1c(C)cc2cc(Nc3ccnc4cc(C(=O)N5CC(F)[C@H](O)C5)sc34)ccc21 (stereo partly drawn) [Example 7b, 5-[(2-{[(4R)-3-Fluoro-4-hydroxypyrrolidin-1-yl]carbonyl}thieno[3,2-b]pyridin-7-yl)amino]-N,2-dimethyl-1H-indole-1-carboxamide] |
| 4.55 | 68 | – | > 1000 | – | – | CNC(=O)c1c(C)n(C(=O)NC)c2ccc(Oc3ccnc4cc(C(=O)N5CC[C@@H](N(C)C)C5)sc34)cc12 [Example 8a, 5-[(2-{[(3R)-3-(Dimethylamino)pyrrolidin-1-yl]carbonyl}thieno[3,2-b]pyridin-7-yl)oxy]-N,N′,2-trimethyl-1H-indole-1,3-dicarboxamide] |
| 0.521 | 89 | – | – | – | – | CO[C@H]1CCN(C(=O)c2cc3nccc(Oc4ccc5c(c4)cc(C)n5C(=O)NCCCCO)c3s2)C1 [Example 9a, 5-[2-(3S-Methoxy-pyrrolidine-1-carbonyl)-thieno[3,2-b]pyridin-7-yloxy]-2-methyl-indole-1-carboxylic acid (4-hydroxy-butyl)-amide] |
| 2.72 | 90 | – | – | – | – | CCC(=O)n1c(C)cc2cc(Oc3ccnc4cc(C(=O)N5CC[C@H](O)C5)sc34)ccc21 [Example 10b, (3S)-1-({7-[(2-Methyl-1-propionyl-1H-indol-5-yl)oxy]thieno[3,2-b]pyridin-2-yl}carbonyl)pyrrolidin-3-ol] |
| 37.8 | 20 | – | – | – | – | CCOC(=O)c1cc2ncnc(Nc3ccc4c(c3)cc(C)n4C(=O)NC)c2s1 [Example 11a, 4-(2-Methyl-1-methylcarbamoyl-1H-indol-5-ylamino)-thieno[3,2-b]pyrimidine-6-carboxylic acid ethyl ester] |
| 28.8 | 18 | – | – | – | – | CNC(=O)n1c(C)cc2cc(Nc3ncnc4cc(C(=O)N5CCC[C@H]5COC)sc34)ccc21 [Example 11b, 5-[6-(2-Methoxymethyl-pyrrolidine-1-carbonyl)-thieno[3,2-b]pyrimidin-4-ylamino]-2-methyl-indole-1-carboxylic acid methylamide] |
| 240 | 0 | – | – | – | – | CCOC(=O)c1cc2c(Nc3ccc4c(c3)cc(C)n4C(=O)NC)ncnc2s1 [Example 12a, 4-(2-Methyl-1-methylcarbamoyl-1H-indol-5-ylamino)-thieno[2,3-b]pyrimidine-6-carboxylic acid ethyl ester] |
| 141 | 5 | – | > 1000 | – | – | CNC(=O)n1c(C)cc2cc(Nc3ncnc4sc(C(=O)N5CCC[C@H]5COC)cc34)ccc21 [Example 12b, 5-[6-(2-Methoxymethyl-pyrrolidine-1-carbonyl)-thieno[2,3-b]pyrimidin-4-ylamino]-2-methyl-indole-1-carboxylic acid methylamide] |
| 34.3 | 14 | – | – | – | – | CCOC(=O)c1cc2c(Oc3ccc4c(c3)cc(C)n4C(=O)NC)ncnc2s1 [Example 12c, 4-(2-Methyl-1-methylcarbamoyl-1H-indol-5-yloxy)-thieno[2,3-b]pyrimidine-6-carboxylic acid ethyl ester] |
